A short description of data set [1]: Cytotoxicity against HELF cells assessed as reduction in viability at 1 to 300 uM after 48 hrs under without FBS condition by MTT assay. Format: toxicity, cell-based. As to conditions: human, dose 1-300 µM. (Tetrazolium assays rely on reduction of a dye to a coloured formazan, in cell work by metabolically active cells.)
Data set [2] relates to Mus musculus. The data set is described as follows: Anti-pulmonary fibrosis activity in bleomycin-induced C57BL/6 mouse model of pulmonary fibrosis assessed as decrease in disturbance of alveolar structure in lung at 50 to 100 mg/kg, ip for 3 weeks by H and E staining based fluorescence microscopic analysis. Format: functional, organism-based. As to conditions: dose 50-100 mg/kg.

Data set [3] in a line: Stability of compound in human liver microsomes assessed as remaining parent compound at 100 uM incubated after 60 mins in presence of NADPH by LC-MS/MS analysis. Format: ADME, Microsome. Particulars: read-out: Stability.
Data set [4] concerns the target T1, Protein deacetylase HDAC6 (Homo sapiens) (UniProt Q9UBN7).
T1 sequence (whole entry): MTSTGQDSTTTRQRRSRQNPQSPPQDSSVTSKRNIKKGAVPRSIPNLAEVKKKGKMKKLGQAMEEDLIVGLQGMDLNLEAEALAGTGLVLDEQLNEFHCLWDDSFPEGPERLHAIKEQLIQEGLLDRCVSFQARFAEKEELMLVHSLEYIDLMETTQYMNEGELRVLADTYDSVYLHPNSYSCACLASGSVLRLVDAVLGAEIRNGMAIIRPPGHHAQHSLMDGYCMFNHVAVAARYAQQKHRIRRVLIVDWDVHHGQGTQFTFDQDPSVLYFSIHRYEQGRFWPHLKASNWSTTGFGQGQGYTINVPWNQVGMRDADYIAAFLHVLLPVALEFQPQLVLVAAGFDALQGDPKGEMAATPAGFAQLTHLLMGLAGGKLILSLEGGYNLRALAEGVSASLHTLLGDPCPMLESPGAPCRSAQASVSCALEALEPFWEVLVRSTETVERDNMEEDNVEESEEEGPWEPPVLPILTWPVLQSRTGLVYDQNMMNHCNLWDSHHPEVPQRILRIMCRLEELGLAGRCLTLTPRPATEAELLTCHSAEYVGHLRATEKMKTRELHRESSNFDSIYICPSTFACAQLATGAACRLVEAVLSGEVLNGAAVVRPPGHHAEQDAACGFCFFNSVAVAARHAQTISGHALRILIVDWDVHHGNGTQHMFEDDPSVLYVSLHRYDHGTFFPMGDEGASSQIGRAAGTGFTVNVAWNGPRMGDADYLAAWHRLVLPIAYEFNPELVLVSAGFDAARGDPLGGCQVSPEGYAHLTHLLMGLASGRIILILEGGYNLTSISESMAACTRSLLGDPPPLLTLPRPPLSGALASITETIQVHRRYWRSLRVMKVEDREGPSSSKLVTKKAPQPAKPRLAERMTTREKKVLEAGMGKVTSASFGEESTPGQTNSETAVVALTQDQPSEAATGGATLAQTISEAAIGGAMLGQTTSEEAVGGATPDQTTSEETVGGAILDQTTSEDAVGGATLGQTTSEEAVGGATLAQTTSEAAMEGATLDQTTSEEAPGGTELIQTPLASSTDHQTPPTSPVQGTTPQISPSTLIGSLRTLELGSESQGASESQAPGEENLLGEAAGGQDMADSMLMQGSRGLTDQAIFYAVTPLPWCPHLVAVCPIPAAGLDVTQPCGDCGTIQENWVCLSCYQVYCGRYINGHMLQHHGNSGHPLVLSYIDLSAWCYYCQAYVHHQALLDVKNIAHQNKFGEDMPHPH
The data set is described as follows: Inhibition of HDAC6 in TGF-beta1-induced HELF cells assessed as upregulation of acetylated histone H3 level at 2.5 to 10 uM by Western blot analysis. Format: cell-based. Particulars: dose 2.5-10 µM. For orientation: Immunoblotting shows a protein as a band on a membrane.

Data set [5] relates to Mus musculus. The data set is described as follows: Anti-pulmonary fibrosis activity in bleomycin-induced ip dosed C57BL/6 mouse model of pulmonary fibrosis assessed as inhibition of alpha-SMA protein expression level in lung for 3 weeks by immunohistochemical analysis. Format: functional, organism-based. Particulars: dose 50-100 mg/kg.
In another data set the test system is HELF. The data set is described as follows: Antifibrotic activity against TGF-beta1-induced HELF cells assessed as reduction in viability after 48 hrs by MTT assay. Format: functional, cell-based. As to conditions: Homo sapiens, dose 2.5-10 µM.
The target in data set [6] is T2, Polyamine deacetylase HDAC10 (Homo sapiens, UniProt Q969S8).
T2 sequence (Q969S8 whole entry): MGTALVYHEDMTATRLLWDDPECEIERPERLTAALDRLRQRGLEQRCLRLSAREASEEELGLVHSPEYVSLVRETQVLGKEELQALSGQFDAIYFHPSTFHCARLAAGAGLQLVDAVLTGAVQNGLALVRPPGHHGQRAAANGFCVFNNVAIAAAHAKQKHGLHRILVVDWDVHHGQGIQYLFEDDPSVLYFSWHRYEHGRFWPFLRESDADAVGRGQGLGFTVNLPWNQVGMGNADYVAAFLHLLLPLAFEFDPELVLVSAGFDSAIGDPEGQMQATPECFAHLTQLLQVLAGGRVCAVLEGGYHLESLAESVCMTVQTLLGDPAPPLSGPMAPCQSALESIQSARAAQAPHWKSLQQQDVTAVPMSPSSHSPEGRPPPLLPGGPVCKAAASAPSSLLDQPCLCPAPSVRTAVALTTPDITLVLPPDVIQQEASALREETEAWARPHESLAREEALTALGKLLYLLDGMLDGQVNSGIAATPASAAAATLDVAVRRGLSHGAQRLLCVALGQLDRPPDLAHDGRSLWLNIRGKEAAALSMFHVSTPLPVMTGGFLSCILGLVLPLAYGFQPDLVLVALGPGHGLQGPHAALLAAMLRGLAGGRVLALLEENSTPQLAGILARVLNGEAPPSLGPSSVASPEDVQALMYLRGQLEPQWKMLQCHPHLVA
Put plainly: Inhibition of N-terminal FLAG-tagged recombinant human HDAC10 (2 to 631 residues) expressed in baculovirus sf9 insect cells expression system using Boc-Lys (Ac)-AMC as substrate incubated for 120 mins by fluorescence analysis.

The target of data set [7] is Mothers against decapentaplegic homolog 2 (Homo sapiens) (UniProt Q15796). Put plainly: Inhibition of TGF-beta1-induced Smad2 protein phosphorylation level in HELF cells incubated for 48 hrs by Western blot analysis. As to conditions: dose 2.5-10 µM. Format: cell-based.
A short description of data set [8]: Stability of compound in human liver microsomes assessed as remaining parent compound at 100 uM incubated after 60 mins by LC-MS/MS analysis. Format: ADME, Microsome. Particulars: read-out: Stability. A general note: Microsomes from liver hold many membrane-bound enzymes, among them those of drug oxidation.
Data set [9] concerns Mus musculus. Put plainly: Anti-pulmonary fibrosis activity in bleomycin-induced C57BL/6 mouse model of pulmonary fibrosis assessed as decrease in thickening of the alveolar wall in lung at 50 to 100 mg/kg, ip for 3 weeks by H and E staining based fluorescence microscopic analysis. Format: functional, organism-based. As to conditions: dose 50-100 mg/kg.
Data set [10] deals with Mus musculus. Put plainly: Anti-pulmonary fibrosis activity in bleomycin-induced C57BL/6 mouse model of pulmonary fibrosis assessed as decrease in fibrosis scars in lung at 50 to 100 mg/kg, ip for 3 weeks by H and E staining based fluorescence microscopic analysis. Format: functional, organism-based. Particulars: dose 50-100 mg/kg.
Data set [11] in a line: Half life in human plasma at 2 uM by LC-MS/MS analysis. Format: ADME, cell-free.

Calls of active or inactive are those of the source. A value given as a limit tells only on which side of the number the result lay.

Mothers against decapentaplegic homolog 2 (Homo sapiens), sequence (Q15796 whole entry): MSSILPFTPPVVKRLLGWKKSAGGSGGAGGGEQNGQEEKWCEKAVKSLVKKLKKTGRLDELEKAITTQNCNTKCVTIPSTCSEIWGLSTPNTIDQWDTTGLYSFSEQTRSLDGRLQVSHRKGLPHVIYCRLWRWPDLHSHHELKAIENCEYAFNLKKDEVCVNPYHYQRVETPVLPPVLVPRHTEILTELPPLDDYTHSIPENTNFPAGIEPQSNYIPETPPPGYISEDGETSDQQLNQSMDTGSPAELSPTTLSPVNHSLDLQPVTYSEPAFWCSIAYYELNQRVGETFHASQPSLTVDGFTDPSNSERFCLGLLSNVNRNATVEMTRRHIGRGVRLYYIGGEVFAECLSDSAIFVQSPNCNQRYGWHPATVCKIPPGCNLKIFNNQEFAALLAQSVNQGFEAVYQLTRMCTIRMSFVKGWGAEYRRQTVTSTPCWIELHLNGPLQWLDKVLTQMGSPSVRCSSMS

The IC50 is the point on the concentration scale where inhibition reaches its midpoint. By half-life is commonly meant the time needed for the level to fall by half in the phase considered. Low values mean rapid decline, high ones slow decline. On to `CC(=O)O.O=C(NO)c1ccc(CN2C(=O)[C@@H]3CCCN3Cc3ccccc32)cc1`, for which the Activity result in data set [1] was “Toxic”; in the data set on HELF it was “Dose-Dependent Effect”. Besides, the outcome in the data set with Mus musculus [2] and in the data set on Mus musculus [10] was Active. The remaining at 1 h, 100 µM in data set [3] was 95.7%; in data set [8], 77.4%. Further, the inhibition result in [4] is “inactive”. Further, the inhibition entry (with Mus musculus [5]; in [7]) was “Dose-Dependent Effect” throughout. The half-maximal inhibitory concentration (IC50) in data set [6] turned out to be 1.32 µM. The result in the data set on Mus musculus [9] was inactive. The compound further showed a half-life at 2 µM in data set [11] above 4.82 h.

These data come from ChEMBL document CHEMBL5584244, “Discovery of novel pyrrolo[2,1-c][1,4]benzodiazepine-3,11-dione (PBD) derivatives as selective HDAC6 inhibitors for the efficient treatment of idiopathic pulmonary fibrosis (IPF) in vitro and in vivo” (Eur J Med Chem, 2024).
